Target: T1, TRβ (Homo sapiens, UniProt P10828)
T1 sequence (P10828 1-461): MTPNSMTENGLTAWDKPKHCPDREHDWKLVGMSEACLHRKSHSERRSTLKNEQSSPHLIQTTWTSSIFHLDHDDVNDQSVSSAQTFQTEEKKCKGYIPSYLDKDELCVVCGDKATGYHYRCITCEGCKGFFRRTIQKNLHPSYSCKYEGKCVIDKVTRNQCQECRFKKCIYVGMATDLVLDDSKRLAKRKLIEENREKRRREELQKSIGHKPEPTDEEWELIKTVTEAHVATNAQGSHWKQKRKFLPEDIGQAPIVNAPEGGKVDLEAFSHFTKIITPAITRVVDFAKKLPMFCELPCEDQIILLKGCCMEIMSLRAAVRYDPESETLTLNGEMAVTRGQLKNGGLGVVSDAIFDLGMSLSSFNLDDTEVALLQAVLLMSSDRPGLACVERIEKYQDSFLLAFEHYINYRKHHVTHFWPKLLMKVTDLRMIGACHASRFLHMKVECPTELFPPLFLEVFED
Details: reference
Experimental: using the U2-OS based CALUX cytotox bioassay. The cytotoxicity of each test chemical was assessed using the U2-OS based cytotoxicity CALUX bioassay. Concentrations causing >20% reduction of luminescence were considered cytotoxic.
cytotoxicity (relative induction in the cytotoxicity CALUX bioassay > 80%) were used for final
evaluation of analysis results.
induction in the cytotox CALUX bioassay > 80%) were used for final evaluation of analysis results.
All analysis results were expressed in molar (M) final in well.
For determination of the (anti-)ERα, (anti-)AR and (anti-)TRβ CALUX activities, CALUX cells were
seeded in assay medium. Following exposure of the CALUX cells to serial dilutions of the
compounds in triplicate for 24 h, the induction of luciferase production was quantified by measuring
luminescence following addition of the substrate luciferin. For antagonist assays, a fixed
concentration of assay agonist was present in each well, to generate a basal signal. On each plate, a
complete calibration curve for each respective bioassay was also analysed using the relevant reference
compounds. For the analyses in the presence of rat liver S9, 0.03% (v/v) of PB/BNF induced rat liver
S9 mix (including NADPH and an NADPH-regenerating system) was added to the cells directly after
addition of the compounds, which remained there for the duration of the exposure period (24 h) (van
Relative light units (RLUs) of the CALUX assays were analysed as follows. For agonist assays,
background values (exposure to DMSO only) were subtracted, and the maximum activity of the
assay’s reference compound was set to 100%. For antagonist assays, the basal signal (exposure to fixed concentration of agonist only) was set to 100%. Activity of the samples was scaled accordingly,
resulting in expression of the data as “percentage of maximum reference response”. Graphs were
generated using the statistical software package GraphPad Prism V5.03. Using these graphs, lowest
effect concentrations (LOECs) and PC50 concentrations were determined; LOEC is defined as the […]

Q: Which “Anti-TRß antithyroid LOEC, reference compound” value does the source give for CC1=C[C@H]2O[C@@H]3[C@H](O)C[C@](C)([C@@]2(CO)[C@H](O)C1=O)[C@]31CO1 [Deoxynivalenol, reference compound] here?
A: The value was −6.9 Log M.

Source: paper PMC11220827 (Frontiers in Pharmacology, 2024)
